BindingDB's records for patent US20240101544 (2024)

Tests used:
[1] = molecular target: Glutaminyl-peptide cyclotransferase-like protein (Homo sapiens, UniProt Q9NXS2); experiment: QPCTL Enzymatic Activity Assay
Description: QPCTL activity was measured in a coupled-enzyme assay using the QPCTL substrate, glutamine-7-amido-4-methylcoumarin (H-Gln-AMC, Bachem), which is converted to pyroglutamyl-AMC by QPCTL. Pyroglutamyl-AMC is then converted to the fluorescent molecule, AMC, by incubation with the human enzyme pyroglutamyl peptidase-1. […] Final concentrations of DMSO and test compounds were 2% and 30-100 μM, respectively. Following the incubation, H-Gln-AMC substrate was diluted in assay buffer and added to each well for a final concentration of 10 μM. The reaction was incubated for 60 min at 37° C., before stopping it by boiling at 100° C. for 5 minutes and cooling the plate at 4° C. for 3 minutes. […] Following incubation, the fluorescence was measured with a plate reader using excitation at 380 nm and emission at 460 nm.

[2] = molecular target: Glutaminyl-peptide cyclotransferase (Homo sapiens, UniProt Q16769); experiment: QPCT Enzymatic Activity Assay
Chain of Glutaminyl-peptide cyclotransferase (Q16769 whole entry): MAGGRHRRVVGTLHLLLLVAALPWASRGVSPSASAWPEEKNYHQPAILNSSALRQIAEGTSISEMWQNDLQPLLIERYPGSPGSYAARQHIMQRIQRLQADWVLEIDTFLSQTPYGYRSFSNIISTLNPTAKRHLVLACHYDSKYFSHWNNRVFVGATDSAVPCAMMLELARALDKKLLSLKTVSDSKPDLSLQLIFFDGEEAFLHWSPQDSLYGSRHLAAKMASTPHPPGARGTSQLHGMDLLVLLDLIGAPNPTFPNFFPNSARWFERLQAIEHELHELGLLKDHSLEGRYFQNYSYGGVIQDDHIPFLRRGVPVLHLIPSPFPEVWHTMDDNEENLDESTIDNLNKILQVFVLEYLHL
Description: QPCT activity was measured in a coupled-enzyme assay using the QPCT substrate, glutamine-7-amido-4-methylcoumarin (H-Gln-AMC, Bachem), which is converted to pyroglutamyl-AMC by QPCT. Pyroglutamyl-AMC is then converted to the fluorescent molecule, AMC, by incubation with the human enzyme pyroglutamyl peptidase-1 (PGPEP-1). […] Following the incubation, H-Gln-AMC substrate was diluted in assay buffer and added to each well for a final concentration of 10 μM. The reaction was incubated for 60 min at 37° C., before stopping it by boiling at 100° C. for 5 minutes and cooling the plate at 4° C. for 3 minutes. […] Following incubation, the fluorescence was measured with a plate reader using excitation at 380 nm and emission at 460 nm.

Chain of Glutaminyl-peptide cyclotransferase-like protein (Q9NXS2 whole entry): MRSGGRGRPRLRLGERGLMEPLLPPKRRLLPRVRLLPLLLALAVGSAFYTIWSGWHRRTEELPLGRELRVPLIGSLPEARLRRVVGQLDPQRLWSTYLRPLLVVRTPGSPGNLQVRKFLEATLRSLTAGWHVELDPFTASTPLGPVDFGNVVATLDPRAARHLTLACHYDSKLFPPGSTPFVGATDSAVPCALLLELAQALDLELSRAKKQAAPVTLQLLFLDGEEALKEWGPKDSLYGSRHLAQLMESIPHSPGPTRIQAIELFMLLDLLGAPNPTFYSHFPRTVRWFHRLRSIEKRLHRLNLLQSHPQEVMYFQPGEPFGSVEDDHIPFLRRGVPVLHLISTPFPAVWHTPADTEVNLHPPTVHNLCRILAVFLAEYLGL

## Cn1cncc1C1CCN(c2c(C#N)ccnc2-c2ccc(F)nc2)CC1 [US20240101544, Example 134]
[1]
  IC50: < 100 nM
[2]
  IC50: < 100 nM
